Data published in patent US20250382305A1 (PTC THERAPEUTICS, INC., priority 2022, published 2025).

Columns and labels:
ATXN3 pre-mRNA = assay: RT-qPCR Assay to Quantify Exon 4 Skipping in ATXN3 pre-mRNA in Cells; assay type: cell-based; details: percent exon 4 skipping in ATXN3 pre-mRNA, RT-qPCR of cell lysates; average IC50
Description: RT-qPCR Assay to Quantify Exon 4 Skipping in ATXN3 pre-mRNA in Cells
(§1) Test compounds were serially diluted 3.16-fold in 100% DMSO to generate a 7-point concentration curve. Aliquots of 0.5 μL of diluted compounds were transferred to a 96-well flat bottom plate by a liquid handler. An aliquot of 0.5 μL DMSO was also transferred to separate wells and used as controls. Duplicate samples were set up for each compound concentration and for the DMSO control.
Cells were thawed and incubated in cell culture media (DMEM, 10% FBS, and 1% antibiotic cocktail) for 72 h. Cells were trypsinized, counted, and re-suspended to a concentration of 100,000 cells/mL in cell culture media. A 100 μL aliquot of the cell suspensions were plated at 10,000 cells per well in the compound containing 96 well microtiter plate and incubated for in a cell culture incubator (37° C., 5% CO2, 100% relative humidity).
After 24 h, media was aspirated from the cells and 50 μL of the RCL2 lysis buffer (10 mM Tris-HCL pH 7.4, 150 mM NaCl, 0.33% IGEPAL® CA-630) was added to each well and incubated at RT for 1 min. Chilled nuclease free water (50 μL per well) was added and the plates were immediately transferred on ice. After 1 min on ice, plates were frozen at −80° C. overnight.
Preparation of RT-qPCR Reaction Mixture:
An aliquot of 2 μL/well of the cell lysates was transferred using the liquid handler to the Armadillo 384-Well PCR plate containing 8 μL/well of the RT-qPCR reaction mixture that was prepared as detailed above. The plates were then sealed with MicroAmp™ Optical Adhesive Film followed by spinning down for 1 min and placed in the CFX384 thermocycler (BioRad).
The RT-qPCR was carried out at the following temperatures for the indicated time: • Step 1: 48° C. (30 min) • Step 2: 95° C. (10 min) • Step 3: 95° C. (15 sec) • Step 4: 60° C. (1 min); then, repeated Steps 3 and 4 for a total of 40 cycles.
The percent exon 4 skipping was calculated for each dose of compound treatment using Equations 1 and 2.
Data were fit to a dose response curve and the IC50 was interpolated using XLfit® statistical and curve fitting package.
(§2) An average IC50>1 μM is indicated by one star (*), between >0.3 μM and ≤1 μM is indicated by two stars (**), between >0.03 μM and ≤0.3 μM is indicated by three stars (***), and ≤0.03 μM is indicated by four stars (****).

[1] = test system: Total ATXN3 (tATXN3) protein; assay: Endogenous Total ATXN3 (tATXN3) Protein Assay (MSD immunoassay of cell lysates); assay type: cell-based; details: average IC50, total ATXN3 protein in cell lysate after 48 h with compound (Table 1)
Description: Endogenous Total ATXN3 (tATXN3) Protein Assay
Meso Scale Discovery (MSD) 96-well or 384-well plates were coated overnight at 4° C. with Ataxin 3 mouse monoclonal antibody (Invitrogen, MA3-082) at a concentration of 0.5 μg/mL in PBS (30 μL per well). Plates were then washed three times with 300 μL wash buffer (0.05% TWEEN®-20, polyethylene glycol sorbitan monolaurate, in PBS) and blocked (Meso Scale Diagnostics, R93BA-1; 5% BSA in PBS) for 2 h at RT with rotational shaking and then washed three times with wash buffer.
as §1
Cells were thawed and incubated in cell culture media (DMEM, 10% FBS, and 1% antibiotic cocktail) for 72 h. Cells were trypsinized, counted, and re-suspended to a concentration of 100,000 cells/mL in cell culture media. A 100 μL aliquot of the cell suspensions were plated at 10,000 cells per well in the compound containing 96 well microtiter plate and incubated for in a cell culture incubator (37° C., 5% CO2, 100% relative humidity). After 48 h, the medium was removed and 50-100 μL of lysis buffer (Meso Scale Diagnostics, R60TX-2) containing 1× halt protease inhibitor cocktail of (Thermo Scientific, Halt™ Protease Inhibitor Cocktail, 78430) per well was added to cells to provide a “cell lysate”. The plate was placed on a shaker at 4° C. for 30 minutes, then stored at −80° C.
Cell lysate samples (25 μL) were transferred to the antibody-coated MSD plate and incubated overnight at 4° C. After removal of the lysates, the plate was washed three times with wash buffer, and 25 μL of Ataxin 3 recombinant rabbit monoclonal antibody (Invitrogen, #702788) secondary antibody (diluted to 0.25 μg/mL in 0.05% TWEEN®-20 in blocking buffer) was added to each well and incubated with shaking for 1-2 h at room temperature. Following incubation with the secondary antibody, the wells were rinsed with wash buffer and then 25 μL of Anti Rabbit Antibody Goat SULFO-TAG Labeled (Meso Scale Diagnostics, R32AB-1) detecting antibody (diluted to […] in 0.05% TWEEN®-20 in blocking buffer) was added to each well and incubated with shaking for 1 h at room temperature. After rinsing three times with wash buffer, 150 μL of Read Buffer T with surfactant (tris-based buffer containing tripropylamine, Meso Scale Diagnostics, R92TC-1) were added to each empty well, and the plate was imaged on a SI 6000 imager (MSD) according to manufacturers' instructions provided for 96- or 384-well plates.
as §2

Substance | IC50 (ATXN3 pre-mRNA) | IC50 [1]
2-(3-aminotetrahydro-2H-pyran-2-yl)-N-benzyl-3-bromo-5-chlorothieno[3,2-b]pyridin-7-amine [Compound 27] | ≤ 0.03 µM | 0.03 to 0.3 µM
2-((1R,2R)-2-amino-4,4-dimethylcyclohexyl)-3-bromo-5-chloro-N-(thiophen-2-ylmethyl)thieno[3,2-b]pyridin-7-amine and 2-((1S,2S)-2-amino-4,4-dimethylcyclohexyl)-3-bromo-5-chloro-N-(thiophen-2-ylmethyl)thieno[3,2-b]pyridin-7-amine [Compound 152] | 0.03 to 0.3 µM | 0.03 to 0.3 µM
2-((1R,2R)-2-amino-5,5-difluorocyclohexyl)-5-chloro-3-methyl-N-(thiophen-2-ylmethyl)thieno[3,2-b]pyridin-7-amine and 2-((1S,2S)-2-amino-5,5-difluorocyclohexyl)-5-chloro-3-methyl-N-(thiophen-2-ylmethyl)thieno[3,2-b]pyridin-7-amine [Compound 333] | 0.03 to 0.3 µM | 0.03 to 0.3 µM
2-((1R,2R)-2-amino-5,5-dimethylcyclohexyl)-3-bromo-5-chloro-N-(thiophen-2-ylmethyl)thieno[3,2-b]pyridin-7-amine and 2-((1S,2S)-2-amino-5,5-dimethylcyclohexyl)-3-bromo-5-chloro-N-(thiophen-2-ylmethyl)thieno[3,2-b]pyridin-7-amine [Compound 149] | 0.03 to 0.3 µM | 0.03 to 0.3 µM
2-((1R,2R)-2-aminocyclohexyl)-3,5-dichloro-1-(difluoromethyl)-N-(thiophen-2-ylmethyl)-1H-pyrrolo[3,2-b]pyridin-7-amine and 2-((1S,2S)-2-aminocyclohexyl)-3,5-dichloro-1-(difluoromethyl)-N-(thiophen-2-ylmethyl)-1H-pyrrolo[3,2-b]pyridin-7-amine [Compound 421] | ≤ 0.03 µM | ≤ 0.03 µM
2-((1R,2R)-2-aminocyclohexyl)-5-chloro-3-(prop-1-yn-1-yl)-N-(thiophen-2-ylmethyl)thieno[3,2-b]pyridin-7-amine and 2-((1S,2S)-2-aminocyclohexyl)-5-chloro-3-(prop-1-yn-1-yl)-N-(thiophen-2-ylmethyl)thieno[3,2-b]pyridin-7-amine [Compound 189] | ≤ 0.03 µM | ≤ 0.03 µM
2-((1R,2R)-2-aminocyclohexyl)-5-chloro-3-methyl-N-(thiophen-2-ylmethyl)thieno[3,2-b]pyridin-7-amine or 2-((1S,2S)-2-aminocyclohexyl)-5-chloro-3-methyl-N-(thiophen-2-ylmethyl)thieno[3,2-b]pyridine-7-amine [Compound 35] | 0.3 to 1 µM | 0.3 to 1 µM
2-((1R,2R)-2-aminocyclohexyl)-N-benzyl-5-chloro-3-(prop-1-yn-1-yl)thieno[3,2-b]pyridin-7-amine and 2-((1S,2S)-2-aminocyclohexyl)-N-benzyl-5-chloro-3-(prop-1-yn-1-yl)thieno[3,2-b]pyridin-7-amine [Compound 226] | ≤ 0.03 µM | ≤ 0.03 µM
2-((1R,2R)-2-aminocyclohexyl)-N-benzyl-5-chloro-3-iodothieno[3,2-b]pyridin-7-amine and 2-((1S,2S)-2-aminocyclohexyl)-N-benzyl-5-chloro-3-iodothieno[3,2-b]pyridin-7-amine [Compound 295] | 0.03 to 0.3 µM | 0.03 to 0.3 µM
2-((1R,2R,6S)-2-amino-6-fluorocyclohexyl)-3-bromo-5-chloro-N-(thiophen-2-ylmethyl)thieno[3,2-b]pyridin-7-amine and 2-((1S,2S,6R)-2-amino-6-fluorocyclohexyl)-3-bromo-5-chloro-N-(thiophen-2-ylmethyl)thieno[3,2-b]pyridin-7-amine [Compound 335] | 0.03 to 0.3 µM | 0.03 to 0.3 µM
2-((1R,2S,6R)-2-amino-6-fluorocyclohexyl)-3-bromo-5-chloro-N-(thiophen-2-ylmethyl)thieno[3,2-b]pyridin-7-amine and 2-((1S,2R,6S)-2-amino-6-fluorocyclohexyl)-3-bromo-5-chloro-N-(thiophen-2-ylmethyl)thieno[3,2-b]pyridin-7-amine [Compound 181] | ≤ 0.03 µM | ≤ 0.03 µM
2-((1R,2S,6R)-6-amino-2-methylcyclohex-3-en-1-yl)-3-bromo-5-chloro-N-(thiophen-2-ylmethyl)thieno[3,2-b]pyridin-7-amine and 2-((1S,2R,6S)-6-amino-2-methylcyclohex-3-en-1-yl)-3-bromo-5-chloro-N-(thiophen-2-ylmethyl)thieno[3,2-b]pyridin-7-amine [Compound 402] | ≤ 0.03 µM | ≤ 0.03 µM
2-((1R,5S,6S)-6-amino-5-methoxycyclohex-3-en-1-yl)-3-bromo-5-chloro-N-(thiophen-2-ylmethyl)thieno[3,2-b]pyridin-7-amine and 2-((1S,5R,6R)-6-amino-5-methoxycyclohex-3-en-1-yl)-3-bromo-5-chloro-N-(thiophen-2-ylmethyl)thieno[3,2-b]pyridin-7-amine [Compound 371] | 0.03 to 0.3 µM | 0.03 to 0.3 µM
2-((1R,6R)-6-aminocyclohex-3-en-1-yl)-3-bromo-5-chloro-N-((E)-pent-2-en-1-yl)thieno[3,2-b]pyridin-7-amine and 2-((1S,6S)-6-aminocyclohex-3-en-1-yl)-3-bromo-5-chloro-N-((E)-pent-2-en-1-yl)thieno[3,2-b]pyridin-7-amine [Compound 455] | 0.3 to 1 µM | 0.3 to 1 µM
2-((1R,6R)-6-aminocyclohex-3-en-1-yl)-3-bromo-5-chloro-N-(cyclopent-1-en-1-ylmethyl)thieno[3,2-b]pyridin-7-amine and 2-((1S,6S)-6-aminocyclohex-3-en-1-yl)-3-bromo-5-chloro-N-(cyclopent-1-en-1-ylmethyl)thieno[3,2-b]pyridin-7-amine [Compound 332] | 0.03 to 0.3 µM | 0.03 to 0.3 µM
2-((1R,6R)-6-aminocyclohex-3-en-1-yl)-5-chloro-3-(propa-1,2-dien-1-yl)-N-(thiophen-2-ylmethyl)thieno[3,2-b]pyridin-7-amine and 2-((1S,6S)-6-aminocyclohex-3-en-1-yl)-5-chloro-3-(propa-1,2-dien-1-yl)-N-(thiophen-2-ylmethyl)thieno[3,2-b]pyridin-7-amine [Compound 324] | 0.03 to 0.3 µM | 0.03 to 0.3 µM
2-((1R,6R)-6-aminocyclohex-3-en-1-yl)-5-chloro-3-methyl-N-(thiophen-2-ylmethyl)thieno[3,2-b]pyridin-7-amine and 2-((1S,6S)-6-aminocyclohex-3-en-1-yl)-5-chloro-3-methyl-N-(thiophen-2-ylmethyl)thieno[3,2-b]pyridin-7-amine [Compound 367] | 0.03 to 0.3 µM | 0.03 to 0.3 µM
